Laboratory results published in US6881719B2, “β-turn peptidomimetic cyclic compounds” (McGill University, priority 2000, dated 2005).
Blank lines part the entries; values can stand above or below the molecule they belong to. No end group written: not given here.

Key:
[1] = molecular target: T1, NIH3T3 fibroblasts expressing TrkA (Homo sapiens, UniProt P04629); assay: Cell survival (MTT), NIH-TrkA; type: cell-based; conditions: 72 hours;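 further: 100% equals survival with optimal NGF at 1 nM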
T1 construct: expressed in transfected cells; host or cells: NIH3T3 fibroblasts
Text: The 4-3.6 cells are B104 cells stably transfected with human trkA cDNA, and express equal levels of p75 and TrkA (TrkA+ p75+). For screening agents that activate or antagonize TrkC receptors, NIH3T3 fibroblasts were stably transfected with human TrkC cDNA. […] For screening agents that activate or antagonize TrkA receptors, NIH3T3 fibroblasts were stably transfected with human TrkA cDNA.
(§1) Cell lines: 5,000 cells/well in protein-free media (PFHM-II, GIBCO, Toronto) containing 0.2% bovine serum albumin (BSA) (Crystalline fraction V, Sigma, St. Louis, Mo.) were seeded in 96 well plates (Falcon, Mississauga, Ontario). The cultures were untreated, or treated with the indicated test or control ligands. Cell viability was quantitated using the MTT assay after 56-72 hours of culture. […] The OD of untreated cells were subtracted.

[2] = molecular target: T2, NIH3T3 fibroblasts expressing TrkC (Homo sapiens, UniProt Q16288); assay: Cell survival (MTT), NIH-TrkC; type: cell-based; conditions: 72 hours
T2 construct: expressed in transfected cells; host or cells: NIH3T3 fibroblasts
Text: (§2) The 4-3.6 cells are B104 cells stably transfected with human trkA cDNA, and express equal levels of p75 and TrkA (TrkA+ p75+). For screening agents that activate or antagonize TrkC receptors, NIH3T3 fibroblasts were stably transfected with human TrkC cDNA. These cells respond to the ligand NT-3. For screening agents that activate or antagonize TrkA receptors, NIH3T3 fibroblasts were stably transfected with human TrkA cDNA. These cells respond to the ligand NGF.
as §1, with “subtracted. The higher optical density of untreated primary cultures is likely due to cellular heterogeneity and to endogenous production of limiting amounts of growth factors.” for “subtracted.”

[3] = system: wild type NIH3T3 fibroblasts; assay: Cell survival (MTT), NIH wt; type: cell-based; conditions: 72 hours
Text: as §2
as §1, with “subtracted. The higher optical density of untreated primary cultures is likely due to cellular heterogeneity and to endogenous production of limiting amounts of growth factors.” for “subtracted.”

[4] = molecular target: TrkA on primary rat embryonic neurons (DRG and septal cultures) (rat) (UniProt P35739); assay: cell-based or functional assay
[5] = molecular target: human TrkC expressed on transfected NIH3T3 fibroblasts (human) (UniProt Q16288); assay: cell-based or functional assay
[6] = molecular target: human TrkA expressed on transfected cells (4-3.6 cells; NIH3T3-TrkA cells) (human) (UniProt P04629); assay: cell-based or functional assay
[7] = molecular target: human TrkC expressed on transfected NIH3T3 fibroblasts (human) (UniProt Q16288); assay: cell-based or functional assay; remark: listed apart in the source
[8] = molecular target: TrkA on primary rat embryonic neurons (DRG and septal cultures) (rat, UniProt P35739 33-799); assay: cell-based or functional assay
Chain of TrkA on primary rat embryonic neurons (DRG and septal cultures) (P35739 33-799): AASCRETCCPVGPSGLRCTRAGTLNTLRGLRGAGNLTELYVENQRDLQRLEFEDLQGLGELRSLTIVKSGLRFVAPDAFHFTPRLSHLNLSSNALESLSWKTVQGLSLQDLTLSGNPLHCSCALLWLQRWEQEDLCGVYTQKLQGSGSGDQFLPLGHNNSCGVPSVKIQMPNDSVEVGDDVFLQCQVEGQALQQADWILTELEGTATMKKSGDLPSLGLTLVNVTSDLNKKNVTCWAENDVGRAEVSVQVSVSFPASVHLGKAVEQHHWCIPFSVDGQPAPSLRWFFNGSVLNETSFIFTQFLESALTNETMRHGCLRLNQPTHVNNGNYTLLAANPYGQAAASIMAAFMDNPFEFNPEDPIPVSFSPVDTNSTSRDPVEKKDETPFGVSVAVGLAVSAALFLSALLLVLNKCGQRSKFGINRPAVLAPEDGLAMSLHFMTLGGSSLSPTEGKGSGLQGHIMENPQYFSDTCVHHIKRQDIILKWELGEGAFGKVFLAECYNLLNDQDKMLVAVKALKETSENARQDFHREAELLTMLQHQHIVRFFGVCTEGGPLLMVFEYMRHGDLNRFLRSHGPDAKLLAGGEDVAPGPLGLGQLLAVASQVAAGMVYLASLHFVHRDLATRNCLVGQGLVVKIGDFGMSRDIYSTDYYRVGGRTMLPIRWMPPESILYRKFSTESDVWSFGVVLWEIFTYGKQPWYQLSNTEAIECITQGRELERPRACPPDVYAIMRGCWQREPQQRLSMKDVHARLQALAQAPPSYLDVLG

T1 sequence (P04629 33-796): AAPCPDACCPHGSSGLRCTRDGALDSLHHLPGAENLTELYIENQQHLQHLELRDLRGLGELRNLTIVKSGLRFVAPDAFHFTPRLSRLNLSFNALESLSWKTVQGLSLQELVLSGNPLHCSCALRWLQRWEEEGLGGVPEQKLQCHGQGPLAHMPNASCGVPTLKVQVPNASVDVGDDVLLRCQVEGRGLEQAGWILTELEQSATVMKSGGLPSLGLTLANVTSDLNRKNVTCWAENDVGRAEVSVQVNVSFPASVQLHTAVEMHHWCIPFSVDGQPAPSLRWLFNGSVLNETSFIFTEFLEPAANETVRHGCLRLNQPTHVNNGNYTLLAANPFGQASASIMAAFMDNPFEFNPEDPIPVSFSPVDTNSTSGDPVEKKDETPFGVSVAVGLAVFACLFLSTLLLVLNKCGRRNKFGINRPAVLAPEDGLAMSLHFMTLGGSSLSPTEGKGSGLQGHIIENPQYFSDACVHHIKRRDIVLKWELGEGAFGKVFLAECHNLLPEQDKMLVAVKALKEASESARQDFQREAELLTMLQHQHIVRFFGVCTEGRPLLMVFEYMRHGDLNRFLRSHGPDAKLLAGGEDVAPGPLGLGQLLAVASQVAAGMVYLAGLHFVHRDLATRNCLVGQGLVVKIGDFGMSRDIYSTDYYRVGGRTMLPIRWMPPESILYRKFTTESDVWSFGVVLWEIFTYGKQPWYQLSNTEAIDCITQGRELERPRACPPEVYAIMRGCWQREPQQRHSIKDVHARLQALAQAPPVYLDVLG
Chain of TrkA on primary rat embryonic neurons (DRG and septal cultures) (rat) (P35739 33-799): as the sequence (P35739 33-799) above
Chain of human TrkC expressed on transfected NIH3T3 fibroblasts (human) (Q16288 32-839): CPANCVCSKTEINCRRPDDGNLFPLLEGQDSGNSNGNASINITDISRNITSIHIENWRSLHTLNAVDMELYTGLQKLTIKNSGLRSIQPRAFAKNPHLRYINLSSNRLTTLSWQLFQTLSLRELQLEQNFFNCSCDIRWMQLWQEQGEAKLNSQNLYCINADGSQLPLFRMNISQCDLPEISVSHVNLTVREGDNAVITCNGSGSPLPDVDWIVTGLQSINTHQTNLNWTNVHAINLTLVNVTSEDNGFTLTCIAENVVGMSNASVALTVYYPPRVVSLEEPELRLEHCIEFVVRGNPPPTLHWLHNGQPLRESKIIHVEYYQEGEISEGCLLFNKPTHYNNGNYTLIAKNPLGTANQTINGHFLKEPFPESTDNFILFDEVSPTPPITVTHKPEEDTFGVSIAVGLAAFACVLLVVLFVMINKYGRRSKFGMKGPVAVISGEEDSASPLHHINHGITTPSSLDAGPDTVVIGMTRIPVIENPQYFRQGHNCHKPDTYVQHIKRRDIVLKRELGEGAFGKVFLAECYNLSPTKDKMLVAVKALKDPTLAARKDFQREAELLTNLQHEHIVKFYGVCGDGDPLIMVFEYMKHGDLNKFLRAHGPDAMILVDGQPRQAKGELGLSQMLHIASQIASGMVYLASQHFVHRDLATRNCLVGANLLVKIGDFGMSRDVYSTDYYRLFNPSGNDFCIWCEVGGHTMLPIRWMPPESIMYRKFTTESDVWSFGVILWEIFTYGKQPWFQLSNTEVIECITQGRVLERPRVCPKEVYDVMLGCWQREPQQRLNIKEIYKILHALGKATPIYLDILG
T2 sequence (Q16288 32-839): as above
Chain of human TrkA expressed on transfected cells (4-3.6 cells; NIH3T3-TrkA cells) (human) (P04629 33-796): as the sequence (P04629 33-796) above

Molecule: NT-3: Neurotrophin-3, prefers binding to TrkC receptors
NIH-TrkA % Protection ([1]; 10 pM NT-3): 3 ± 2%
NIH-TrkA % Protection ([1]; 1 nM NT-3): 17 ± 3%
NIH-TrkC % Protection ([2]; 10 pM NT-3): 29±1%
NIH-TrkC % Protection ([2]; 1 nM NT-3): 100 ± 2%
NIH wt % Protection ([3]; 10 pM NT-3): 1 ± 4%
NIH wt % Protection ([3]; 1 nM NT-3): −2 ± 5%

Molecule: CC(O)[C@@H]1NC(=O)[C@H](CCCCN)NC(=O)c2cc([N+](=O)[O-])cc(I)c2OCCC(C(N)=O)NC1=O (stereo partly drawn) [P27]
NIH-TrkA % Protection ([1]; agent 10 μM + 10 pM NT-3): 4 ± 1%
NIH-TrkA % Protection ([1]; agent 10 μM alone): 5 ± 2%
NIH-TrkC % Protection ([2]; agent 10 μM + 10 pM NT-3): 62 ± 6%
NIH-TrkC % Protection ([2]; agent 10 μM alone): 13 ± 3%
NIH wt % Protection ([3]; agent 10 μM + 10 pM NT-3): 5 ± 4%
NIH wt % Protection ([3]; agent 10 μM alone): −2 ± 4%

Molecule: CCC(C)[C@@H]1NC(=O)C(CC(=O)O)NC(=O)c2cc([N+](=O)[O-])cc(I)c2OCCC(C(N)=O)NC1=O (stereo partly drawn) [P23]
NIH-TrkA % Protection ([1]; agent 10 μM + 10 pM NGF): 52 ± 3%
NIH-TrkA % Protection ([1]; agent 10 μM + 10 pM NT-3): 21 ± 3%
NIH-TrkA % Protection ([1]; agent 10 μM alone): 15 ± 2%
NIH-TrkC % Protection ([2]; agent 10 μM + 10 pM NGF): 11 ± 5%
NIH-TrkC % Protection ([2]; agent 10 μM + 10 pM NT-3): 51 ± 7%
NIH-TrkC % Protection ([2]; agent 10 μM alone): 8 ± 2%
NIH wt % Protection ([3]; agent 10 μM + 10 pM NGF): 1 ± 3%
NIH wt % Protection ([3]; agent 10 μM + 10 pM NT-3): 1 ± 3%
NIH wt % Protection ([3]; agent 10 μM alone): 0 ± 3%

Further lines, with some results ahead:

% Protection (MTT, rat DRG neurons), NGF 20 pM [4]: 9%
% Protection (MTT, rat DRG neurons), NGF 500 pM [4]: 68%
ChAT Activity (rat septal neurons), 10 pM NGF (pmol Ach/min/well) [4]: 0.42
ChAT Activity (rat septal neurons), 400 pM NGF (pmol Ach/min/well) [4]: 0.72
% Protection (MTT, NIH-TrkC), 10 pM NGF [5]: 2%
% Protection (MTT, NIH-TrkC), 1 nM NGF [5]: 5%
Molecule: nerve growth factor (NGF) (ligand)
Optical Density (MTT survival, rat DRG neurons), NGF 20 pM [4]: 316 OD
Optical Density (MTT survival, rat DRG neurons), NGF 500 pM [4]: 0.535 OD
Optical Density (MTT survival, rat DRG neurons), NGF 1 nM [4]: 823 OD

% Protection (MTT, NIH-TrkA), 10 pM NT-3 [6]: 3%
% Protection (MTT, NIH-TrkC), 10 pM NT-3 [7]: 29%
B1: Neurotrophin-3 (NT-3) (ligand, UniProt P20783 139-257, looked up, species assumed)
Neurotrophin-3: YAEHKSHRGEYSVCDSESLWVTDKSSAIDIRGHQVTVLGEIKTGNSPVKQYFYETRCKEARPVKNGCRGIDDKHWNSQCKTSQTYVRALTSENNKLVGWRWIRIDTSCVCALSRKIGRT

ChAT Fold Increase, 20 µM C59 control [8]: 1 fold
Molecule: Glu-Lys-Cys (also: further groups not given here) [C59 (EKCys), inactive analog of D3]
